Test results: US20200046620A1, “Solid Compositions for Teeth Whitening and Anti-Microbial Effects” (Colgate-Palmolive Company, priority 2018, published 2020)

Test: pH-dependent bleaching of Lissamine green B dye by NaDCC
Type: physicochemical
Conditions: 10 mg NaDCC in 20 mL
Protocol: Two different solutions, Solution A and Solution B, were prepared. Solution A contained 2% SAPP, 0.1% Lissamine green B dye, and 97.9% water. Solution B contained 2% tetrasodium pyrophosphate (TSPP), 0.1% Lissamine green B dye, and 97.9% water. Next, solutions with various pHs were obtained by mixing the two different solutions A and B, in different volume ratios (i.e., 1:0, 1:5, 1:1, 5:1, and 0:1). 20 mL of the resulting solutions were added to 10 mg NaDCC, and the time required to bleach away all of the Lissamine green B color was recorded.

In the case of `O=c1nc([O-])n(Cl)c(=O)n1Cl.[Na+]` [NaDCC, sodium dichloroisocyanurate], the Time to bleach (Mix Solution 1, VA:VB 1:0, pH 4.6) is reported as “Instantaneous”, the Time to bleach (Mix Solution 2, VA:VB 1:5, pH 5.8) is reported as 0.25 min and the Time to bleach (Mix Solution 3, VA:VB 1:1, pH 7.4) is reported as 8 min. For the same compound, the Time to bleach (Mix Solution 4, VA:VB 5:1, pH 8.8) was 35 min and the Time to bleach (Mix Solution 5, VA:VB 0:1, pH 10.5) was 80 min.
